Molecular target: T1, HA-S147A CaSR mutant (Rattus norvegicus, UniProt P48442, S147A)
T1 construct: mGluR5 signal peptide (N); expressed in transfected cells; host or cells: HEK293T
T1 sequence (P48442 20-1079 S147A): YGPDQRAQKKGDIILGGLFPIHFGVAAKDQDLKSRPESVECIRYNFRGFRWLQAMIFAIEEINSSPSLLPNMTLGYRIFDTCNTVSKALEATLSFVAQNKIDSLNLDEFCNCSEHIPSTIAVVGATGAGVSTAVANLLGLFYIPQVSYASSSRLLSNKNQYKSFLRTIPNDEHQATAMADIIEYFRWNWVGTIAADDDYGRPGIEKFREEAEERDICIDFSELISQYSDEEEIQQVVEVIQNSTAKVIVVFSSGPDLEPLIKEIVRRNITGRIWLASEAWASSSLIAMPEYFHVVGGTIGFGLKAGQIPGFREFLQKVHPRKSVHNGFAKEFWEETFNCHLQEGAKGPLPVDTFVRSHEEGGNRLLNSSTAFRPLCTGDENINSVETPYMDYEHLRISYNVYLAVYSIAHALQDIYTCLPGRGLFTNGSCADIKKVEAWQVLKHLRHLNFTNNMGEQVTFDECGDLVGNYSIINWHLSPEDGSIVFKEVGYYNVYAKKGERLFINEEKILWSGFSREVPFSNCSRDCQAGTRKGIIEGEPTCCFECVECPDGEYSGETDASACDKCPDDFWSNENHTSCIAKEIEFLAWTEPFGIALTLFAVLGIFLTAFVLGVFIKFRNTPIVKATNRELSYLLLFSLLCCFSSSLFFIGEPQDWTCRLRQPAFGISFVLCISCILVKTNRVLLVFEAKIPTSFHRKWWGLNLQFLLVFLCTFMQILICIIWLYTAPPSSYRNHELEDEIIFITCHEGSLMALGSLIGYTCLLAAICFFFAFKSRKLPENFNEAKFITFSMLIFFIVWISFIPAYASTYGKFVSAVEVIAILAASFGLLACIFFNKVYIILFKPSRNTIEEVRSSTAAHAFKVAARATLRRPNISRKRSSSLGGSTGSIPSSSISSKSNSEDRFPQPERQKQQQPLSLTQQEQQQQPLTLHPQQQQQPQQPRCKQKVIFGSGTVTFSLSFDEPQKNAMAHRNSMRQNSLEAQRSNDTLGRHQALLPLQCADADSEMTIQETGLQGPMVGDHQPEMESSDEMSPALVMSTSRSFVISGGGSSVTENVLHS
Test: IP-One assay, HEK293T transiently transfected
Type: cell-based

## [Ca+2] [Ca^2+]
Ca^2+ alone
  EC50: 9.07 mM
  Hill coefficient ± S.E.M.: 3.50 ± 0.26
  pEC50 ± S.E.M.: 2.04 ± 0.01
Normalized to maximum response of WT CaSR
  Max ± S.E.M.: 150 ± 17%

Reference: article PMC5394417, “Investigating the molecular mechanism of positive and negative allosteric modulators in the calcium-sensing receptor dimer” (Scientific Reports, 2017)
